Results: US5593970A, “Heterocyclic anthracycline analogs” (priority 1994, dated 1997)
“And” between values parts separate entries of the source, which are not always exact repeats. Identical values can stand only once. Like-named read-outs stand apart in the source and are kept apart here.

Experiments:
MOLT-4 = experiment: NCI sulforhodamine B assay; type: cell-based; details: Homo sapiens, MOLT-4, 48 h; read-out: Log10 TGI (converted)
Protocol: (§1) These assays were carried out at the Developmental Therapeutics Program, Division of Cancer Treatment, National Cancer Institute (Bethesda, Md., U.S.A.). The method consists of incubating varying concentrations of the drug with an inoculum of cells for two days. […] The 57 cell lines included two mouse leukemia lines (P388 parental and adriamycin resistant) and […] human cell lines.
(§2) It should be noted that the first two parameters (GI50 and TGI) relate to antiproliferation effects while the third one (LC50) indicates true cytotoxicity. A value of -4 or greater is considered to denote resistance (inactivity).

OVCAR-8 = experiment: NCI sulforhodamine B assay; type: cell-based; details: Homo sapiens, read-out: Log10 GI50 (converted)
Protocol: as §1, §2

XF-498 L = experiment: NCI sulforhodamine B assay; type: cell-based; details: Homo sapiens
Protocol: as §1, §2

P388 = experiment: NCI sulforhodamine B assay; type: cell-based; details: Mus musculus, P388, 48 h
Protocol: as §1, §2

OVCAR-3 = experiment: NCI sulforhodamine B assay; type: cell-based; details: Homo sapiens, read-out: Log10 GI50 (converted)
Protocol: as §1, §2

K-562 = experiment: NCI sulforhodamine B assay; type: cell-based; details: Homo sapiens, K562, 48 h, read-out: Log10 TGI (converted)
Protocol: as §1, §2

SNB-78 = experiment: NCI sulforhodamine B assay; type: cell-based; details: Homo sapiens, SNB-78, 48 h, read-out: Log10 LC50 (converted)
Protocol: as §1, §2

HCT-116 = experiment: NCI sulforhodamine B assay; type: cell-based; details: Homo sapiens
Protocol: as §1, §2

SW-620 = experiment: NCI sulforhodamine B assay; type: cell-based, human; details: for GI50: Homo sapiens, read-out: Log10 GI50 (converted)
Protocol: as §1, §2

HOP-92 = experiment: NCI sulforhodamine B assay; type: cell-based, human
Protocol: as §1, §2

MALMB-3M = experiment: NCI sulforhodamine B assay; type: cell-based, human
Protocol: as §1, §2

EKVX = experiment: NCI sulforhodamine B assay; type: cell-based, human
Protocol: as §1, §2

NCl-H460 = experiment: NCI sulforhodamine B assay; type: cell-based, human
Protocol: as §1, §2

OVCAR-5 = experiment: NCI sulforhodamine B assay; type: cell-based, human
Protocol: as §1, §2

OVCAR-4 = experiment: NCI sulforhodamine B assay; type: cell-based, human
Protocol: as §1, §2

MCF-7/ADR = experiment: NCI sulforhodamine B assay; type: cell-based, human
Protocol: as §1, §2

UO-31 = experiment: NCI sulforhodamine B assay; type: cell-based, human
Protocol: as §1, §2

MCF-7 = experiment: NCI sulforhodamine B assay; type: cell-based, human
Protocol: as §1, §2

NCl-H226 = experiment: NCI sulforhodamine B assay; type: cell-based, human
Protocol: as §1, §2

NCl-H23 = experiment: NCI sulforhodamine B assay; type: cell-based, human
Protocol: as §1, §2

Renal = details: renal cancer cell lines, 48 h
Melanoma = details: melanoma cell lines, 48 h
[1] = Homo sapiens, 48 h, read-out: Log10 TGI (converted)
[2] = Homo sapiens, read-out: Log10 GI50 (converted)

## COC(=O)C1CC2=C(C(=O)c3c(cc4ccccc4c3O)C2=O)C(O[C@H]2C[C@H](NC(=O)C(F)(F)F)[C@H](O)[C@H](C)O2)O1 (mixture of isomers) [BCH-242, (1'S,1R,3S) and (1'S, 1S,3R)-Methyl[11-hydroxy-1-2',3',6'-trideoxy-3-trifluroacetamido-L-lyxohexopyranose)-5,12-dioxo-3,4,5,12-tetrahydroanthraceno[2,3-c]pyran-3-yl]formate]
MOLT-4
  IC100: 3.24 µM
OVCAR-8; OVCAR-8, OVCAR-8
  GI50: 224 nM
OVCAR-8; OVCAR-8
  GI50: 3240 nM
XF-498 L; XF498, 48 h, read-out: Log10 LC50 (converted)
  CC50: 6.03 µM
XF-498 L; XF498, 48 h, XF-498 L, read-out: Log10 TGI (converted)
  IC100: 3.16 µM
XF-498 L; XF498, XF-498 L, read-out: Log10 GI50 (converted)
  GI50: 1620 nM
P388; read-out: Log10 LC50 (converted)
  CC50: > 100 µM
P388; read-out: Log10 TGI
  IC100: > 100 µM
OVCAR-3; OVCAR-3, OVCAR-3
  GI50: 1510 nM
OVCAR-3; OVCAR-3
  GI50: 251 nM
K-562
  IC100: 4.47 µM
SNB-78
  CC50: > 100 µM
HCT-116; HCT-116, 48 h, read-out: Log10 LC50 (converted)
  CC50: 933 nM
HCT-116; HCT-116, 48 h, read-out: Log10 TGI (converted)
  IC100: 0.355 µM
HCT-116; HCT-116, read-out: Log10 GI50 (converted)
  GI50: 132 nM
SW-620; SW-620, SW-620
  GI50: > 100000 nM
SW-620; SW-620
  GI50: 1320 nM
SW-620; SW-620, 2880 min
  Log10 LC50: -5.19 log molar
HOP-92; HOP-92, 2880 min
  Log10 LC50: -5.36 log molar
HOP-92; Homo sapiens, HOP-92, 48 h, read-out: Log10 LC50, HOP-92 (converted)
  CC50: 6.76 µM
MALMB-3M; Homo sapiens, 48 h, MALMB-3M, read-out: Log10 TGI (converted)
  IC100: 3.24 µM
MALMB-3M; Homo sapiens, 48 h, read-out: Log10 LC50, MALMB-3M (converted)
  CC50: 5.75 µM
MALMB-3M; Homo sapiens, MALMB-3M, read-out: Log10 GI50 (converted)
  GI50: 1780 nM
MALMB-3M; MALMB-3M
  Log10 GI50: -6.02 log molar
  Log10 TGI: -5.67 log molar
MALMB-3M; MALMB-3M, 2880 min
  Log10 LC50: -5.33 log molar
EKVX
  Log10 GI50: -5.83 log molar
EKVX; 2880 min
  Log10 LC50: -5.27 log molar
EKVX; Homo sapiens, 48 h, read-out: Log10 LC50, EKVX (converted)
  CC50: 6.31 µM
EKVX; [1]
  IC100: 3.39 µM
EKVX; [2]
  GI50: 1780 nM
NCl-H460; Homo sapiens, 48 h, NCl-H460, read-out: Log10 TGI (converted)
  IC100: 3.98 µM
NCl-H460; Homo sapiens, NCI-H460, 48 h, read-out: Log10 LC50, NCl-H460 (converted)
  CC50: 8.13 µM
NCl-H460; NCl-H460
  Log10 TGI: -5.70 log molar
NCl-H460; NCl-H460, 2880 min
  Log10 LC50: -5.33 log molar
OVCAR-5; Homo sapiens, OVCAR-5, 48 h, OVCAR-5, read-out: Log10 TGI (converted)
  IC100: 3.47 µM
OVCAR-5; Homo sapiens, OVCAR-5, 48 h, read-out: Log10 LC50, OVCAR-5 (converted)
  CC50: 5.89 µM
OVCAR-5; Homo sapiens, OVCAR-5, OVCAR-5, read-out: Log10 GI50 (converted)
  GI50: 2000 nM
OVCAR-5; OVCAR-5
  Log10 GI50: -5.73 log molar
  Log10 TGI: -5.49 log molar
OVCAR-5; OVCAR-5, 2880 min
  Log10 LC50: -5.24 log molar
OVCAR-4; Homo sapiens, OVCAR-4, 48 h, OVCAR-4, read-out: Log10 TGI (converted)
  IC100: 3.31 µM
OVCAR-4; Homo sapiens, OVCAR-4, 48 h, read-out: Log10 LC50, OVCAR-4 (converted)
  CC50: 6.03 µM
OVCAR-4; OVCAR-4
  Log10 GI50: -5.94 log molar
  Log10 TGI: -5.63 log molar
OVCAR-4; OVCAR-4, 2880 min
  Log10 LC50: -5.31 log molar
MCF-7/ADR; Homo sapiens, NCI/ADR-RES, 48 h, read-out: Log10 LC50, MCF-7/ADR (converted)
  CC50: 7.08 µM
MCF-7/ADR; MCF-7/ADR, 2880 min
  Log10 LC50: -5.15 log molar and -5.40 log molar
UO-31
  Log10 GI50: -5.62 log molar
UO-31; 2880 min
  Log10 LC50: -4.77 log molar
MCF-7; Homo sapiens, MCF7, 48 h, read-out: Log10 LC50, MCF-7 (converted)
  CC50: 5.37 µM
MCF-7; Homo sapiens, MCF7, MCF-7; read-out: Log10 GI50 (converted)
  GI50: 324 nM
MCF-7; Homo sapiens, MCF7; MCF-7; read-out: Log10 GI50 (converted)
  GI50: 1550 nM
MCF-7; MCF-7; 2880 min
  Log10 LC50: -5.38 log molar
NCl-H226
  Log10 GI50: -5.71 log molar
  Log10 TGI: -5.44 log molar
NCl-H226; [1]
  IC100: 6.61 µM
NCl-H226; [2]
  GI50: 2750 nM
NCl-H23; Homo sapiens, 48 h, NCl-H23, read-out: Log10 TGI (converted)
  IC100: 3.24 µM
NCl-H23; Homo sapiens, NCI-H23, 48 h, read-out: Log10 LC50, NCl-H23 (converted)
  CC50: 5.89 µM
NCl-H23; NCl-H23
  Log10 GI50: -5.99 log molar
  Log10 TGI: -5.65 log molar
NCl-H23; NCl-H23, 2880 min
  Log10 LC50: -5.31 log molar

## Methyl(11-hydroxy-5,12-dioxo-3,4,5,12-tetrahydroanthraceno[2,3-c]pyran-3-yl)ketone and Methyl(5-hydroxy-5,12-dioxo-3,4,5,12-tetrahydroanthraceno[2,3-c]pyran-3-yl)ketone [BCH-687]
Renal
  Average LOG10 LC50: > -4.21 log molar
Melanoma
  Average LOG10 LC50: -4.28(± 0.09) log molar
